Values quoted from earlier work, collected in patent US20230372216A1, “METHOD FOR DYEING KERATINOUS MATERIAL, COMPRISING THE USE OF AN ORGANOSILICON COMPOUND, A DYEING COMPOUND, A SEALING REAGENT AND A PRE-TREATMENT AGENT” (Henkel AG & Co. KGaA, priority 2020, published 2023).

Settings: 25° C.

Row | Compound | solubility in water | solubility in water (in words)
1 | CCN(Cc1cccc(S(=O)(=O)[O-])c1)c1ccc(C(=C2C=CC(=[N+](CC)Cc3cccc(S(=O)(=O)[O-])c3)C=C2)c2ccccc2S(=O)(=O)[O-])cc1.[Na+].[Na+] [Acid Blue 9] | more than 20 wt. % | 
2 | O=S(=O)([O-])c1ccc(N=Nc2c(O)ccc3ccccc23)cc1.[Na+] [Acid Orange 7, sodium salt of 4-[(2-hydroxy-1-naphthyl)azo]benzene sulphonate] | more than 7 g/L | 
3 | O=C([O-])c1c(Cl)c(Cl)c(Cl)c(Cl)c1-c1c2c(Br)cc(=O)c(Br)c-2oc2c(Br)c(O)cc(Br)c12.O=C([O-])c1c(Cl)c(Cl)c(Cl)c(Cl)c1-c1c2c(Br)cc(=O)c(Br)c-2oc2c(Br)c(O)cc(Br)c12.[Na+].[Na+] [Acid Red 92, disodium salt of 3,4,5,6-tetrachloro-2-(1,4,5,8-tetrabromo-6-hydroxy-3-oxoxanthen-9-yl)benzoic acid] | greater than 10 g/L | 

The remaining lines, values ahead:

Row | solubility in water | solubility in water (in words) | Compound
4 | 20 mg/mL |  | sodium salts of mono- and disulfonic acids of 2-(2-quinolyl)-1H-indene-1,3(2H)-dione [Acid Yellow 3]
5 |  | highly soluble in water | O=C([O-])C1=NN(c2ccc(S(=O)(=O)[O-])cc2)C(=O)C1N=Nc1ccc(S(=O)(=O)[O-])cc1.[Na+].[Na+].[Na+] (stereo not drawn) [Acid Yellow 23, trisodium salt of 4,5-dihydro-5-oxo-1-(4-sulfophenyl)-4-((4-sulfophenyl)azo)-1H-pyrazole-3-carboxylic acid]
6 | 2.5 mg/mL |  | Nc1cc(S(=O)(=O)[O-])cc2cc(S(=O)(=O)[O-])c(N=Nc3ccccc3)c(O)c12.[Na+].[Na+] [Acid Red 33, disodium salt of 5-amino-4-hydroxy-3-(phenylazo)-naphthalene-2,7-disulphonate]
